Values quoted from earlier work as cited in patent US7354574B2, “Treatment of ocular disease” (Advanced Ocular Systems Limited, priority 2002, dated 2008).

Conditions: administered systemically

SMILES: C=CC[C@@H]1/C=C(\C)C[C@H](C)C[C@H](OC)[C@H]2O[C@@](O)(C(=O)C(=O)N3CCCC[C@H]3C(=O)O[C@H](/C(C)=C/[C@@H]3CC[C@@H](O)[C@H](OC)C3)[C@H](C)[C@@H](O)CC1=O)[C@H](C)C[C@@H]2OC [tacrolimus]
- Renal and hepatic toxicity: significant renal and hepatic toxicity
